In patent US9249125B2, “Pyrazole derivatives as p38 MAP inhibitors” (RESPIVERT LIMITED, priority 2012, dated 2016):

Columns and labels:
cSrc = cSrc (Homo sapiens (Human), UniProt P12931); assay: c-Src enzyme inhibition (FRET, Z-LYTE); type: biochemical
Summary of the method: (§1)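 Z-LYTE FRET kinase assay: enzyme (3000 or 2000 ng/mL stock, respectively) preincubated 2 h at RT with compound (4–0.004 μg/mL stocks), then FRET peptide plus ATP (800 μM stock for c-Src, 60 μM for Syk) added for 1 h. Protease development 1 h; phosphorylation from coumarin/fluorescein emission ratio.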

GSK3α = GSK3α (Homo sapiens (Human), UniProt P49840); assay: GSK 3α enzyme inhibition (FRET, Z-LYTE); type: biochemical
Summary of the method: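 GSK3α (500 ng/mL stock) was preincubated 2 hr at RT with compound (4 to 0.004 μg/mL stocks), then FRET peptide (8 μM stock) and ATP (40 μM stock) added for 1 hr. Protease development for 1 hr cleaved unphosphorylated peptide; coumarin/fluorescein emission ratio reported phosphorylation.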

d-U937 cells = assay: Cell viability: MTT assay; type: cell-based, human; details: 1 μg/mL
Summary of the method: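 Differentiated U937 cells were exposed to compound at 1 or 10 μg/mL either 4 h in 5% FCS RPMI1640 or 24 h in 10% FCS RPMI1640, then given MTT for 1 h, DMSO-solubilised and read at 550 nm. Percent viability loss versus 0.5% DMSO vehicle; apparent gains appear negative.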

[1] = test system: LPS-induced IL-8 release in d-U937 cells; assay: LPS-induced IL-8 release in d-U937 cells; type: cell-based; details: Homo sapiens, dU937, read-out: LPS Induced Release of Cytokine in d-937 Cells IL-8 IC50
Summary of the method: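 PMA (100 ng/mL, 48–72 hr)-differentiated U937; cpd 2 hr pre-inc; LPS 0.1 μg/mL (E. coli O111:B4) 4 hr. Supernatant TNFα/IL-8 by sandwich ELISA. IL-8 inhibition per concentration vs vehicle; REC50 from curve fit.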

[2] = test system: Poly I:C-induced ICAM-1 expression in BEAS2B cells; assay: Poly I:C-induced ICAM-1 expression in BEAS2B cells; type: cell-based; details: Homo sapiens, BEAS-2B, read-out: Poly IC induced ICAM1 in BEAS2B IC50
Summary of the method: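 BEAS2B human bronchial epithelial cells pre-incubated with compound for 2 hr, then transfected with 1 μg/mL poly I:C plus Oligofectamine. At 18 hr, surface ICAM-1 measured by cell-based ELISA (HRP, OD450–655). Signal corrected for cell number by crystal violet OD595.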

Syk = Syk (Homo sapiens (Human), UniProt P43405); assay: Syk enzyme inhibition (FRET, Z-LYTE); type: biochemical
Summary of the method: as §1

p38 MAPKα = p38 MAPKα (Homo sapiens (Human), UniProt Q16539); assay: p38 MAPKα enzyme inhibition (FRET, Z-LYTE); type: biochemical
[3] = test system: LPS-induced TNFα release in d-U937 cells; assay: LPS-induced TNFα release in d-U937 cells; type: cell-based; details: Homo sapiens, dU937, relative to 10 μg/mL BIRB796, read-out: LPS Induced Release of Cytokine in d-937 Cells TNFα REC50
Summary of the method: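 PMA-differentiated (100 ng/mL, 48–72 hr) U937 cells pre-incubated with compound 2 hr, then stimulated with LPS (0.1 μg/mL, E. coli O111:B4) for 4 hr. Supernatant TNFα and IL-8 measured by sandwich ELISA; inhibition versus vehicle control, REC50 from concentration-response curve.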

Chain of GSK3α (P49840 whole entry): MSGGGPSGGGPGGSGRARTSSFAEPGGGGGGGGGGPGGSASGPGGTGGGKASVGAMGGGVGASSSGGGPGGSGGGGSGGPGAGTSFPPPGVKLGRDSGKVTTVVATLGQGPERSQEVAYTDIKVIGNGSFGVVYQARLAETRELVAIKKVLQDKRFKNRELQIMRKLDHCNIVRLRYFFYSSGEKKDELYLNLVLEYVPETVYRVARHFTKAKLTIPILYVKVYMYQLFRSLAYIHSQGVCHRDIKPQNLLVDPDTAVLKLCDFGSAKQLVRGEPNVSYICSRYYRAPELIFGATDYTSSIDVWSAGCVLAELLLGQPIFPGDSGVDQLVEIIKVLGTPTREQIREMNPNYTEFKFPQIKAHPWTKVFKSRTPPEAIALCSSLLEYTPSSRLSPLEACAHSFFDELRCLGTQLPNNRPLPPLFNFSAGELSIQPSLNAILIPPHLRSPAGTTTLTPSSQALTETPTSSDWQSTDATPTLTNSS
Chain of cSrc (P12931 whole entry, looked up): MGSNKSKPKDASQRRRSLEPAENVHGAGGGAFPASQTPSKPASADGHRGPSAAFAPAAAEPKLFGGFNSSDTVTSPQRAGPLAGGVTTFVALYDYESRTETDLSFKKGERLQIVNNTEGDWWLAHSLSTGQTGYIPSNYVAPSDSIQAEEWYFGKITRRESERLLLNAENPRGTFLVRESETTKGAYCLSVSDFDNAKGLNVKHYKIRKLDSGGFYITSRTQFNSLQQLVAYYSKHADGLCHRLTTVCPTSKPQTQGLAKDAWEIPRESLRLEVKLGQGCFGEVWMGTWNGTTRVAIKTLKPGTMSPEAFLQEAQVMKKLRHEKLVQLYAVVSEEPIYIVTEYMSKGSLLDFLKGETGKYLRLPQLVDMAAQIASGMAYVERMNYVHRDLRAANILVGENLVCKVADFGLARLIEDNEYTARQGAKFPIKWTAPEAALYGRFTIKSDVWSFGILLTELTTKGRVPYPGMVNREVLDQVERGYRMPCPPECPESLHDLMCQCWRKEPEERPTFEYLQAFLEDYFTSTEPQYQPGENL
Chain of p38 MAPKα (Q16539 whole entry): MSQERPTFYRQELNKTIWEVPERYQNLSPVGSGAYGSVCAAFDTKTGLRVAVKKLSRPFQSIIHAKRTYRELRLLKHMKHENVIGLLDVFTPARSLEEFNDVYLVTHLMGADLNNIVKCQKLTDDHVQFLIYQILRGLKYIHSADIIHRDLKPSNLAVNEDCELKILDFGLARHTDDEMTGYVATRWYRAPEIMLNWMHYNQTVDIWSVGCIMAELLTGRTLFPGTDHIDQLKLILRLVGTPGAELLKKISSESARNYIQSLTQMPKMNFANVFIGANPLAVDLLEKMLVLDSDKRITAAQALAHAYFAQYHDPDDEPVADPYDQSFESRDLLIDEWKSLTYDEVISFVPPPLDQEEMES

Structure (SMILES) | IC50 (cSrc) | IC50 (GSK3α) | IC50 [1] | IC50 (Syk) | IC50 (p38 MAPKα) | EC50 [3] | MTT Assay Cell viability at time point in d-U937 cells 4 h (d-U937 cells) | MTT Assay Cell viability at time point in d-U937 cells 24 h (d-U937 cells) | IC50 [2]
Cc1ccc(-n2nc(C(C)(C)C)cc2NC(=O)Nc2ccc(Oc3ccnc(Nc4ccc5[nH]nc(C(=O)NCCN6CCOCC6)c5c4)n3)c3ccccc23)cc1 [Example 3, 5-((4-((4-(3-(3-(tert-Butyl)-1-(p-tolyl)-1H-pyrazol-5-yl)ureido)naphthalen-1-yl)oxy)pyrimidin-2-yl)amino)-N-(2-morpholinoethyl)-1H-indazole-3-carboxamide] | 6 nM | 2330 nM | 34.8 nM | 95 nM | 19 nM | 5.2 nM | −ve (−ve and +ve indicate that the value is below and above respectively, the no significant effect threshold, defined as 30% inhibition at 1 μg/mL at the time point indicated.) | −ve (−ve and +ve indicate that the value is below and above respectively, the no significant effect threshold, defined as 30% inhibition at 1 μg/mL at the time point indicated.) | 6.8 nM
COc1ccc(-n2nc(C(C)C)cc2NC(=O)Nc2ccc(Oc3ccnc(Nc4ccc5[nH]nc(OCCN6CCOCC6)c5c4)n3)c3ccccc23)cc1 [Example 44, 1-(3-isopropyl-1-(4-methoxyphenyl)-1H-pyrazol-5-yl)-3-(4-((2-((3-(2-morpholinoethoxy)-1H-indazol-5-yl)amino)pyrimidin-4-yl)oxy)naphthalen-1-yl)urea] | 2 nM | 203 nM | 0.8 nM | 2 nM | 5 nM | 0.4 nM | −ve (−ve and +ve indicate that the value is below and above respectively, the no significant effect threshold, defined as 30% inhibition at 1 μg/mL at the time point indicated.) | −ve (−ve and +ve indicate that the value is below and above respectively, the no significant effect threshold, defined as 30% inhibition at 1 μg/mL at the time point indicated.) | 1.4 nM
CC(C)(C)c1cc(NC(=O)Nc2ccc(Oc3ccnc(Nc4ccc5c(c4)OCO5)n3)c3ccccc23)n(-c2ccc(OCCN3CCOCC3)cc2)n1 [Example 65, 1-(4-((2-(benzo[d][1,3]dioxol-5-ylamino)pyrimidin-4-yl)oxy)naphthalen-1-yl)-3-(3-(tert-butyl)-1-(4-(2-morpholinoethoxy)phenyl)-1H-pyrazol-5-yl)urea] | 23 nM | 2840 nM | 20.9 nM | 141 nM | 239 nM | 5.3 nM | −ve (−ve and +ve indicate that the value is below and above respectively, the no significant effect threshold, defined as 30% inhibition at 1 μg/mL at the time point indicated.) | −ve (−ve and +ve indicate that the value is below and above respectively, the no significant effect threshold, defined as 30% inhibition at 1 μg/mL at the time point indicated.) | 6.7 nM
Cc1ccc(-n2nc(C(C)(C)C)cc2NC(=O)Nc2ccc(Oc3ccnc(Nc4ccc5c(cnn5CCN5CCOCC5)c4)n3)c3ccccc23)cc1 [Example 29, 1-(3-(tert-butyl)-1-(p-tolyl)-1H-pyrazol-5-yl)-3-(4-((2-((1-(2-morpholinoethyl)-1H-indazol-5-yl)amino)pyrimidin-4-yl)oxy)naphthalen-1-yl)urea] | 12 nM | 582 nM | 21.1 nM | 29 nM | 57 nM | 9.9 nM | −ve (−ve and +ve indicate that the value is below and above respectively, the no significant effect threshold, defined as 30% inhibition at 1 μg/mL at the time point indicated.) | −ve (−ve and +ve indicate that the value is below and above respectively, the no significant effect threshold, defined as 30% inhibition at 1 μg/mL at the time point indicated.) | 0.9 nM

More lines, main results first:

IC50 (cSrc) | IC50 (GSK3α) | IC50 [1] | IC50 (Syk) | IC50 (p38 MAPKα) | EC50 [3] | Structure (SMILES) | MTT Assay Cell viability at time point in d-U937 cells 4 h (d-U937 cells) | MTT Assay Cell viability at time point in d-U937 cells 24 h (d-U937 cells) | IC50 [2]
3 nM | 437 nM | 1.3 nM | 20 nM | 67 nM | 1.1 nM | CC(C)(C)c1cc(NC(=O)Nc2ccc(Oc3ccnc(Nc4ccc5c(c4)CS(=O)(=O)C5)n3)c3ccccc23)n(-c2ccc(OCCN3CCOCC3)cc2)n1 [Example 64, 1-(3-(tert-butyl)-1-(4-(2-morpholinoethoxy)phenyl)-1H-pyrazol-5-yl)-3-(4-((2-((2,2-dioxido-1,3-dihydrobenzo[c]thiophen-5-yl)amino)pyrimidin-4-yl)oxy)naphthalen-1-yl)urea] | −ve (−ve and +ve indicate that the value is below and above respectively, the no significant effect threshold, defined as 30% inhibition at 1 μg/mL at the time point indicated.) | −ve (−ve and +ve indicate that the value is below and above respectively, the no significant effect threshold, defined as 30% inhibition at 1 μg/mL at the time point indicated.) | 0.01 nM
< 1 nM | 1540 nM | 84.7 nM | 7 nM | 14 nM | 18.7 nM | CC(C)c1cc(NC(=O)Nc2ccc(Oc3ccnc(Nc4ccc5c(c4)NC(=O)C5)n3)c3ccccc23)n(-c2ccc(OCCN3CCOCC3)cc2)n1 [Example 61, 1-(3-isopropyl-1-(4-(2-morpholinoethoxy)phenyl)-1H-pyrazol-5-yl)-3-(4-((2-((2-oxoindolin-6-yl)amino)pyrimidin-4-yl)oxy)naphthalen-1-yl)urea] | −ve (−ve and +ve indicate that the value is below and above respectively, the no significant effect threshold, defined as 30% inhibition at 1 μg/mL at the time point indicated.) | −ve (−ve and +ve indicate that the value is below and above respectively, the no significant effect threshold, defined as 30% inhibition at 1 μg/mL at the time point indicated.) | > 135 nM
< 1 nM | 908 nM | 21.1 nM | 2 nM | 12 nM | 1.8 nM | COc1ccc(-n2nc(C(C)C)cc2NC(=O)Nc2ccc(Oc3ccnc(Nc4ccc5[nH]nc(C(=O)N(C)C)c5c4)n3)c3ccccc23)cc1 [Example 46, 5-((4-((4-(3-(3-isopropyl-1-(4-methoxyphenyl)-1H-pyrazol-5-yl)ureido)naphthalen-1-yl)oxy)pyrimidin-2-yl)amino)-N,N-dimethyl-1H-indazole-3-carboxamide] | −ve (−ve and +ve indicate that the value is below and above respectively, the no significant effect threshold, defined as 30% inhibition at 1 μg/mL at the time point indicated.) | −ve (−ve and +ve indicate that the value is below and above respectively, the no significant effect threshold, defined as 30% inhibition at 1 μg/mL at the time point indicated.) | 2.3 nM
21 nM | > 1610 nM | 2.2 nM | 50 nM | 187 nM | 1.7 nM | Cc1ccc(-n2nc(C(C)(C)C)cc2NC(=O)Nc2ccc(Oc3ccnc(Nc4ccc5[nH]ccc5c4)n3)c3ccccc23)cc1 [Example 1, 1-(4-((2-((1H-Indol-5-yl)amino)pyrimidin-4-yl)oxy)naphthalen-1-yl)-3-(3-(tert-butyl)-1-(p-tolyl)-1H-pyrazol-5-yl)urea] | −ve (−ve and +ve indicate that the value is below and above respectively, the no significant effect threshold, defined as 30% inhibition at 1 μg/mL at the time point indicated.) | −ve (−ve and +ve indicate that the value is below and above respectively, the no significant effect threshold, defined as 30% inhibition at 1 μg/mL at the time point indicated.) | 4.7 nM
19 nM | 4700 nM | 2.3 nM | 15 nM | 74 nM | 1.1 nM | COCCOc1cccc(-n2nc(C(C)(C)C)cc2NC(=O)Nc2ccc(Oc3ccnc(Nc4cc(C)c5[nH]ncc5c4)c3)c3ccccc23)c1 [Example 57] | −ve (−ve and +ve indicate that the value is below and above respectively, the no significant effect threshold, defined as 30% inhibition at 1 μg/mL at the time point indicated.) | −ve (−ve and +ve indicate that the value is below and above respectively, the no significant effect threshold, defined as 30% inhibition at 1 μg/mL at the time point indicated.) | 4.4 nM
